Experimental data taken from ChEMBL document CHEMBL1201862, “PubChem BioAssay data set” (2004).
The source made the active and inactive calls.

Key:
[1] = target: T1, Low molecular weight phosphotyrosine protein phosphatase (Homo sapiens, UniProt P24666); assay type: functional; conditions: read-out: IC50_Mean;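 note: Dose-response confirmation assay measuring inhibition of LMPTP enzyme activity by fluorescence intensity read-out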
T1 sequence (P24666 whole entry): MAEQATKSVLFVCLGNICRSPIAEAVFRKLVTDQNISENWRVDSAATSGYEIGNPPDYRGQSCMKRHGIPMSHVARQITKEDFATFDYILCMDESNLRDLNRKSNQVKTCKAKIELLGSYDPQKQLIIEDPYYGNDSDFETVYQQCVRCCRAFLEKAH

Escherichia coli = assay: microbe, parasite or virus in culture
[2] = target: DNA (cytosine-5)-methyltransferase 1 (Homo sapiens, UniProt P26358); assay: inhibition of DNA methylation by DNMT1 – biochemical, fluorescent molecular beacon, confirmation (AID 602386); assay type: functional
Melanocortin receptor 4 = Melanocortin receptor 4 (Homo sapiens, UniProt P32245); assay type: functional, cell-based;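 note: Cell-based assay with luminescence read-out, confirmatory dose-response testing for agonist activity of biased ligands at MC4R; human U2OS cells with tagged receptor and beta-arrestin; potency of agonists that increase receptor coupling to beta-arrestin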
[3] = target: T2, Heat shock factor protein 1 (Mus musculus, UniProt P38532); assay: decrease of HSF1-responsive luciferase luminescence – cell-based, NIH3T3, dose retest, confirmation (AID 2382); assay type: functional;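 note: NIH3T3 fibroblasts with HSF1-driven luciferase reporter stressed by proteasome inhibitor MG132; luminescence from HSF1-driven luciferase expression after 8 hours of MG132 stress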
T2 sequence (P38532 whole entry): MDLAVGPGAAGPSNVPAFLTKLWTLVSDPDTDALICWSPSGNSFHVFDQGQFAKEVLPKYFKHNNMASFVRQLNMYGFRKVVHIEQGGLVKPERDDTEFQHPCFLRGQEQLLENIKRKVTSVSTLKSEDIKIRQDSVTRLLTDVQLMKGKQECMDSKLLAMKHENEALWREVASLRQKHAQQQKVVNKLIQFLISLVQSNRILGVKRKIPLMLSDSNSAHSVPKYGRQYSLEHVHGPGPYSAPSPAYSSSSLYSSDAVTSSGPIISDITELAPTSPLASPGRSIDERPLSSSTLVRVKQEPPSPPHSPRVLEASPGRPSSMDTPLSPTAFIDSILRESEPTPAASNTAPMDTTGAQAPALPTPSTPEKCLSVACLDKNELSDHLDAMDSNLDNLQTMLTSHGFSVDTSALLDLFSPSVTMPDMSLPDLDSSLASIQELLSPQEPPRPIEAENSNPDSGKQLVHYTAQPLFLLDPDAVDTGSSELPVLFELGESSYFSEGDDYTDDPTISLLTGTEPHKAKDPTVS

H9c2 = assay: cells; assay type: functional, cell-based; conditions: Rattus norvegicus, H9c2, Myocardium;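 note: confirmatory concentration-response retest of ultra-high-throughput screening hits for modulation of myocardial damage; cell death induced by hydrogen peroxide oxidative stress; compound pretreatment for 60 min then peroxide exposure for 2 h; potency is for protecting the cells against peroxide damage rather than for killing them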
Interleukin-8 = target: T3, Interleukin-8 (Homo sapiens, UniProt P10145); assay: Dose Response confirmation of uHTS small molecule hits for cystic fibrosis induced NFkb Inhibitors in a PAF-induced IL8 counterscreen.; assay type: functional; conditions: read-out: IC50_Mean
T3 sequence (P10145 whole entry): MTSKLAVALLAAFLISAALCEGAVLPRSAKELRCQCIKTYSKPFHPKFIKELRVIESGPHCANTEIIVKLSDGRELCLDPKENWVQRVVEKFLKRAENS

[4] = Late stage assay provider results from the probe development effort to identify inhibitors of the Plasmodium falciparum M17 Leucine Aminopeptidase (M17LAP): radiolabel-based cell-based dose response assay to identify compounds that inhibit P. falciparum growth in RBCs Set 2.; assay type: functional
[5] = target: T4, Apoptotic protease-activating factor 1 (Homo sapiens, UniProt O14727); assay: SAR analysis of small molecule Activators of Apaf-1 in a Fluorescent assay.; assay type: functional; conditions: read-out: EC50_Mean;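 note: caspase-3 cleavage of fluorogenic Rh110 DEVD substrate downstream of apoptosome activation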
T4 sequence (O14727 whole entry): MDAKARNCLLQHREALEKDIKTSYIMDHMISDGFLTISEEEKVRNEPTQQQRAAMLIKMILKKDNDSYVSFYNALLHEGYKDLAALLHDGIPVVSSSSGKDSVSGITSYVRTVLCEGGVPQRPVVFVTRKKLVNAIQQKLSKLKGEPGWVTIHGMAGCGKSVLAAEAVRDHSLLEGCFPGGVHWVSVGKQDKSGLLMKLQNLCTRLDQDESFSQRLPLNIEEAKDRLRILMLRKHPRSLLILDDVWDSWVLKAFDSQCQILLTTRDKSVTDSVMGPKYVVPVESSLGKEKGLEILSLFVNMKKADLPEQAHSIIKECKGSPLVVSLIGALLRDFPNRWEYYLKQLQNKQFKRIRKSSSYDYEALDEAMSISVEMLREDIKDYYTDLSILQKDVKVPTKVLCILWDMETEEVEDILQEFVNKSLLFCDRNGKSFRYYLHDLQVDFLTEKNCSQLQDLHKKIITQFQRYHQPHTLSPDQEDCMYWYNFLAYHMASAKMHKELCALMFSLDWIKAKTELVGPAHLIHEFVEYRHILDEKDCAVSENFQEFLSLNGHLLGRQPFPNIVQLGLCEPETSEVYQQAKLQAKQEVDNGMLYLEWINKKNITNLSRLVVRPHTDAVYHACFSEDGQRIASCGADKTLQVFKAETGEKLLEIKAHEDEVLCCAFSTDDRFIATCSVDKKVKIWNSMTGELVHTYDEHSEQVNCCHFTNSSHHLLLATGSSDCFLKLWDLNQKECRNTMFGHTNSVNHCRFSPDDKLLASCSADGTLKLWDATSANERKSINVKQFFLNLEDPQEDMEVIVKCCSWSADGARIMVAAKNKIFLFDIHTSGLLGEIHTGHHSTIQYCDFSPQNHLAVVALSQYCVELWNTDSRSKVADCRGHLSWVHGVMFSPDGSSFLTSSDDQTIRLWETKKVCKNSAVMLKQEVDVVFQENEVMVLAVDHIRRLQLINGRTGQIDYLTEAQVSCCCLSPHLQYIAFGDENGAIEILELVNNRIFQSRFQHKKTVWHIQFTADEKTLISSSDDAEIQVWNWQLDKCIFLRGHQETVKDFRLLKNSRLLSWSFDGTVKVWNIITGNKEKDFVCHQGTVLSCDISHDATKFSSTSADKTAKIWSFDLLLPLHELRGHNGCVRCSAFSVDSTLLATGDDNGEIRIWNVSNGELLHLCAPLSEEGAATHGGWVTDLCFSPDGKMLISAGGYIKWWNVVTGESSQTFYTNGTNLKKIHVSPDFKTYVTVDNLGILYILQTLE

[6] = target: T5, Methionyl-tRNA synthetase, putative (Trypanosoma brucei brucei, UniProt Q38C91); assay type: functional, Trypanosoma brucei brucei strain 927/4 GUTat10.1
T5 sequence (Q38C91 whole entry): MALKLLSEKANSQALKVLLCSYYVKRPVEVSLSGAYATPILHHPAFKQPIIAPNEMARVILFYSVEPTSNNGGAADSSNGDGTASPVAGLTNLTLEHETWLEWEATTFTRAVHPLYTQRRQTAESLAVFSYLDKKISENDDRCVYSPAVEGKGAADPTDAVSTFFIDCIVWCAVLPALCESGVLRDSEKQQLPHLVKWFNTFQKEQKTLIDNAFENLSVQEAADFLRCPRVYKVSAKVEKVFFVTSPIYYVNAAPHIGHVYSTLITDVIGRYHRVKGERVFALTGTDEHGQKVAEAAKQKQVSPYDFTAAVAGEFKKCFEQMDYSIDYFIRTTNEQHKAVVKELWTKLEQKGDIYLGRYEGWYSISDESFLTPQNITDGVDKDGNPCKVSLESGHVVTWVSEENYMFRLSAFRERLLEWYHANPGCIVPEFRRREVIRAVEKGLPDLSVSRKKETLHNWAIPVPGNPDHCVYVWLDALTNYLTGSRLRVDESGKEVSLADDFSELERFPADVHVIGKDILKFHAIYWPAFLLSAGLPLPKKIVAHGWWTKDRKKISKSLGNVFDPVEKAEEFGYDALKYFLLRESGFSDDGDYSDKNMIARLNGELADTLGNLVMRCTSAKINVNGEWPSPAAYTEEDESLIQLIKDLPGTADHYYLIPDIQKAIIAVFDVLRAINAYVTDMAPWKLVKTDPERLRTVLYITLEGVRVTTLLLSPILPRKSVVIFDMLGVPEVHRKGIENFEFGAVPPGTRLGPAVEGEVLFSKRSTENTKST

[7] = Counterscreen for inhibitors of Trypanosoma brucei methionyl tRNA synthetase (MetRS): Luminescence-based cell-based high throughput dose response assay to identify compounds that are cytotoxic to Jurkat human T lymphocyte cells.; assay type: functional
[8] = target: T5, Methionyl-tRNA synthetase, putative; assay type: functional, Trypanosoma brucei brucei strain 927/4 GUTat10.1; remark: listed apart in the source
[9] = target: T6, Ubiquitin-conjugating enzyme E2 N (Homo sapiens, UniProt P61088); assay type: functional;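 note: Dose-response confirmation in a TR-FRET assay detecting UBC13-driven polyubiquitin chain formation, inhibition measured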
T6 sequence (P61088 whole entry): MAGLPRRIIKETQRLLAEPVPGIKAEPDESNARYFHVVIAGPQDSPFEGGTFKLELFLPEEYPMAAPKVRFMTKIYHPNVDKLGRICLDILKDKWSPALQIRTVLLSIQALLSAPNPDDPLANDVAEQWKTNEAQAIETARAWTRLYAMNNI

[10] = target: T7, Sentrin-specific protease 8 (Homo sapiens, UniProt Q96LD8); assay type: functional
T7 sequence (Q96LD8 whole entry): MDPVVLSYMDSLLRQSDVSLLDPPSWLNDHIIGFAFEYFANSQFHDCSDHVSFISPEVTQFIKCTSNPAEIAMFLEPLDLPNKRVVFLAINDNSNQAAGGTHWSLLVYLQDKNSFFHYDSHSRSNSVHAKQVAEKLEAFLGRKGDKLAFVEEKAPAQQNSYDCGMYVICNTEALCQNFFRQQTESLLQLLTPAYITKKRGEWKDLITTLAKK

[11] = target: T7, Sentrin-specific protease 8; assay type: functional; remark: listed apart in the source

Chain of Melanocortin receptor 4 (P32245 whole entry): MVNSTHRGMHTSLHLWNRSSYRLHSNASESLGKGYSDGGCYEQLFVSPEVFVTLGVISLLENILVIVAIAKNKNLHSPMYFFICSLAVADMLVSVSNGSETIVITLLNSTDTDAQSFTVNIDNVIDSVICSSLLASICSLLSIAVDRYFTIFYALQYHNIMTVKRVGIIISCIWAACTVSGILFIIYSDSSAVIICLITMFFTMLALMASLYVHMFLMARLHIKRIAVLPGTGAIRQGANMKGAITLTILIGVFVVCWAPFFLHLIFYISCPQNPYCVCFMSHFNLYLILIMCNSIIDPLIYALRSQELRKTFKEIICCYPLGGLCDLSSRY
Chain of DNA (cytosine-5)-methyltransferase 1 (P26358 whole entry): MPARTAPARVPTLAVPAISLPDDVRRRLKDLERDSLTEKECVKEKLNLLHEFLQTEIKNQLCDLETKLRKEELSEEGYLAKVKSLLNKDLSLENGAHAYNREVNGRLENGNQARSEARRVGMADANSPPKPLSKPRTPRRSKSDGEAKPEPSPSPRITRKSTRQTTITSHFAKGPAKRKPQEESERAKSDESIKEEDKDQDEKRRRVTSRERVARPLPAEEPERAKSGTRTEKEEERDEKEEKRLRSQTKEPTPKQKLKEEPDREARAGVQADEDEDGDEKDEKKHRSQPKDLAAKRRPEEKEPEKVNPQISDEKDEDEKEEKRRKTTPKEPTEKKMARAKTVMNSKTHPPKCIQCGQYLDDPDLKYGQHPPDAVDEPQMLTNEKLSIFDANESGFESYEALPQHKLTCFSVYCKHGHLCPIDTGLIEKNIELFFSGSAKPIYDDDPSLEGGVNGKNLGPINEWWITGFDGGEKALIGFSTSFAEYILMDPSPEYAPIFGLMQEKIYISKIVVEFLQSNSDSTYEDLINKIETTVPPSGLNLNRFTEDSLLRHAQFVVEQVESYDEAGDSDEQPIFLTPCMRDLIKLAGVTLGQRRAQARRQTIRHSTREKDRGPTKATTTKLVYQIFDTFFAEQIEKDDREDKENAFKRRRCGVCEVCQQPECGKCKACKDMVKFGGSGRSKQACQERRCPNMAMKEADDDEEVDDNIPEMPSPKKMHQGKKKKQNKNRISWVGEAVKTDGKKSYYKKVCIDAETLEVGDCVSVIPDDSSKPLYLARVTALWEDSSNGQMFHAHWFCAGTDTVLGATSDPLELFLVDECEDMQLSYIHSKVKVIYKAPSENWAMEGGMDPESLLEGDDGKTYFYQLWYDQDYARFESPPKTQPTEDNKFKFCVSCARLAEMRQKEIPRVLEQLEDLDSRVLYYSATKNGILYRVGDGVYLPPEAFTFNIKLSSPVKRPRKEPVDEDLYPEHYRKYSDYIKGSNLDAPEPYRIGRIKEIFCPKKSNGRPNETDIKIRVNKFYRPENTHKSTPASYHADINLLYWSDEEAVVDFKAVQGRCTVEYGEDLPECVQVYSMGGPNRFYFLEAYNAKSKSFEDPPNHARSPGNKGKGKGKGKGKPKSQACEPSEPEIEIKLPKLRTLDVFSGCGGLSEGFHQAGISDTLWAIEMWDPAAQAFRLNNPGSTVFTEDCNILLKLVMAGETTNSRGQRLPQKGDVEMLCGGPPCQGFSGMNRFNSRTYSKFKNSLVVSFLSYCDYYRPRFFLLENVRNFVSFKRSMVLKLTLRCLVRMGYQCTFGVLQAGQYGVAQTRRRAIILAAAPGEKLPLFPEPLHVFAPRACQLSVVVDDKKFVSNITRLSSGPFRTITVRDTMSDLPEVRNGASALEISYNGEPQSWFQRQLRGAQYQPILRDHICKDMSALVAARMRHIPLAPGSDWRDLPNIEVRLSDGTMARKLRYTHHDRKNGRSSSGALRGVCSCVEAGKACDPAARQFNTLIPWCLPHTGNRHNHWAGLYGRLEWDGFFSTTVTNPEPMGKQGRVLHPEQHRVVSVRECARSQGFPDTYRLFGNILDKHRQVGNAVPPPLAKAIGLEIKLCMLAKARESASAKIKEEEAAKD

CCn1cc(C(=O)O)c(=O)c2cc(F)c(N3CCN(C(=S)NC(=O)c4ccc(F)c(F)c4)CC3)cc21
IC50 [1]: 16.6 µM (active)
AC50 (Escherichia coli): 3.38 µM (active)

CC(=O)c1cccc(OCC(=O)N(C)CC(=O)NCc2ccco2)c1
IC50 [2]: 6.09 µM (active)

CCOc1ccc(Cn2c3ccc(OC)cc3c3nc4ccccc4nc32)cc1
EC50 (Melanocortin receptor 4): > 89.2 µM (inactive)

CCOc1ccc(-n2c(C)c(C(C)=O)c3cc(OC(C)=O)ccc32)cc1
EC50 [3]: 24.6 µM (active)
IC50 (H9c2): 9.08 µM (active)
IC50 (Interleukin-8): > 79 µM (inactive)

Cc1cc(C)c2sc(N(CCCN(C)C)C(=O)c3ccc(Br)s3)nc2c1
EC50 (Melanocortin receptor 4): > 89.2 µM (inactive)

CC(C)COc1ccc(CC(=O)NO)cc1
IC50 [4]: 7.4 µM (active)

COC(=O)c1coc(-c2ccc(-c3ccccc3)cc2)n1
EC50 [5]: > 100 µM (inactive)

Cc1cc(C)n(CC(C)C(=O)Nc2ccc(Cl)c(Cl)c2)n1 (stereo not drawn)
EC50 [5]: > 100 µM (inactive)

O=C(Cc1ccc2c(c1)CCCC2)NO
IC50 [4]: 5.5 µM (active)

O=C(CC(=O)Nc1cccc(Cl)c1)N/N=C\c1ccccc1
IC50 [6]: 6.25 µM (active)
IC50 [7]: 83.3 µM (inactive)
IC50 [8]: 3.94 µM (active)

COc1cc2c(c(OC)c1OC)-c1ccc(O)c(=O)cc1[C@@H](N)CC2
IC50 [9]: > 20 µM (inactive)
IC50 [10]: > 100 µM (inactive)
IC50 [11]: 25.7 µM (active)
